In PubChem BioAssay AID651578 (Southern Research Specialized Biocontainment Screening …, 2012):
The source made the active and inactive calls. How the calls were made is not given here.

The molecules below were run on VEEV TC-83 virus titer reduction in cells (assay: VEEV TC-83 titer reduction, cell-based, secondary screen, TC-83 strain, set 4 (AID 651578)). Settings: at 5 µM; stronger effect = lower value.
With `O=c1c2cc([N+](=O)[O-])ccc2nc(CN2CCNCC2)n1-c1ccsc1` the log virus titer change was -0.997 (inactive). In the case of `COc1ccc(-n2c(CN3CCNCC3)nc3ccc([N+](=O)[O-])cc3c2=O)cc1`, the log virus titer change is reported as -7.41. For `COc1cccc(-n2c(CN3CCNCC3)nc3ccc([N+](=O)[O-])cc3c2=O)c1`, the log virus titer change was -0.354 (inactive). `CCN1CCN(Cc2nc3ccc([N+](=O)[O-])cc3c(=O)n2-c2ccccc2F)CC1` was tested, and the log virus titer change was -3.36.
